Reference: the NIST ThermoML archive (doi:10.1016/j.fluid.2010.03.010)

Conditions: Liquid, Vibrating tube method

CCCCn1cc[n+](C)c1.N#CN=C=[N-] [1-butyl-3-methylimidazolium dicyanamide]
Conditions | mass density [kg/m3]
333.15 K, 34990 kPa | 1053.1
333.15 K, 40000 kPa | 1055
333.15 K, 45010 kPa | 1056.8
333.15 K, 50000 kPa | 1058.6
333.15 K, 55000 kPa | 1060.4
333.15 K, 60000 kPa | 1062.2
334.15 K, 101.33 kPa | 1038.08
335.15 K, 101.33 kPa | 1037.47
336.15 K, 101.33 kPa | 1036.86
337.15 K, 101.33 kPa | 1036.25
338.15 K, 101.33 kPa | 1035.64
339.15 K, 101.33 kPa | 1035.03
340.15 K, 101.33 kPa | 1034.42
341.15 K, 101.33 kPa | 1033.82
342.15 K, 101.33 kPa | 1033.21
343.15 K, 100 kPa | 1032.9
343.15 K, 101.33 kPa | 1032.61
343.15 K, 250 kPa | 1033
343.15 K, 500 kPa | 1033.1
343.15 K, 1000 kPa | 1033.3
343.15 K, 2000 kPa | 1033.7
343.15 K, 4990 kPa | 1035
343.15 K, 10010 kPa | 1037.2
343.15 K, 15000 kPa | 1039.2
343.15 K, 20010 kPa | 1041.4
343.15 K, 25000 kPa | 1043.3
343.15 K, 30000 kPa | 1045.4
343.15 K, 35010 kPa | 1047.3
343.15 K, 40000 kPa | 1049.3
343.15 K, 45000 kPa | 1051.1
343.15 K, 50000 kPa | 1053
343.15 K, 55000 kPa | 1054.7
343.15 K, 60000 kPa | 1056.6
344.15 K, 101.33 kPa | 1032
345.15 K, 101.33 kPa | 1031.4
346.15 K, 101.33 kPa | 1030.79
347.15 K, 101.33 kPa | 1030.19
348.15 K, 101.33 kPa | 1029.59
349.15 K, 101.33 kPa | 1028.98
350.15 K, 101.33 kPa | 1028.38
351.15 K, 101.33 kPa | 1027.78
352.15 K, 101.33 kPa | 1027.18
353.15 K, 100 kPa | 1026.8
353.15 K, 101.33 kPa | 1026.58
353.15 K, 250 kPa | 1026.9
353.15 K, 500 kPa | 1027
353.15 K, 1000 kPa | 1027.2
353.15 K, 2000 kPa | 1027.7
353.15 K, 5000 kPa | 1029
353.15 K, 10000 kPa | 1031.3
353.15 K, 15000 kPa | 1033.4
353.15 K, 20000 kPa | 1035.5
353.15 K, 25000 kPa | 1037.5
353.15 K, 30010 kPa | 1039.6
353.15 K, 35000 kPa | 1041.6
353.15 K, 40000 kPa | 1043.6
353.15 K, 45000 kPa | 1045.4
353.15 K, 50000 kPa | 1047.4
353.15 K, 55000 kPa | 1049.2
353.15 K, 60000 kPa | 1051
354.15 K, 101.33 kPa | 1025.98
355.15 K, 101.33 kPa | 1025.38
356.15 K, 101.33 kPa | 1024.79
357.15 K, 101.33 kPa | 1024.19
358.15 K, 101.33 kPa | 1023.59
359.15 K, 101.33 kPa | 1022.99
360.15 K, 101.33 kPa | 1022.4
361.15 K, 101.33 kPa | 1021.8
362.15 K, 101.33 kPa | 1021.21
363.15 K, 100 kPa | 1020.8
363.15 K, 101.33 kPa | 1020.61
363.15 K, 250 kPa | 1020.9
363.15 K, 500 kPa | 1021
363.15 K, 1000 kPa | 1021.3
363.15 K, 2000 kPa | 1021.7
363.15 K, 4990 kPa | 1023.1
363.15 K, 10000 kPa | 1025.4
363.15 K, 14990 kPa | 1027.6
363.15 K, 20010 kPa | 1029.8
363.15 K, 25010 kPa | 1031.8
363.15 K, 30000 kPa | 1033.9
363.15 K, 35000 kPa | 1035.9
363.15 K, 40000 kPa | 1038
363.15 K, 45000 kPa | 1039.9
363.15 K, 50000 kPa | 1041.8
363.15 K, 55000 kPa | 1043.7
363.15 K, 60000 kPa | 1045.6
373.15 K, 100 kPa | 1014.9
373.15 K, 250 kPa | 1015
373.15 K, 500 kPa | 1015.1
373.15 K, 1000 kPa | 1015.4
373.15 K, 2000 kPa | 1015.8
373.15 K, 4990 kPa | 1017.2
373.15 K, 10000 kPa | 1019.5
373.15 K, 15000 kPa | 1021.8
373.15 K, 20000 kPa | 1024
373.15 K, 25000 kPa | 1026.2
373.15 K, 30000 kPa | 1028.3
373.15 K, 35000 kPa | 1030.3
373.15 K, 40000 kPa | 1032.4
373.15 K, 45000 kPa | 1034.4
373.15 K, 50000 kPa | 1036.4
373.15 K, 55000 kPa | 1038.3
373.15 K, 60000 kPa | 1040.2
393.15 K, 100 kPa | 1003.2
393.15 K, 250 kPa | 1003.3
393.15 K, 500 kPa | 1003.4
393.15 K, 1000 kPa | 1003.7
393.15 K, 2000 kPa | 1004.1
393.15 K, 4990 kPa | 1005.6
393.15 K, 10010 kPa | 1008.1
393.15 K, 15000 kPa | 1010.4
393.15 K, 20010 kPa | 1012.8
393.15 K, 25000 kPa | 1015
393.15 K, 30000 kPa | 1017.2
393.15 K, 35000 kPa | 1019.4
393.15 K, 40000 kPa | 1021.6
393.15 K, 45000 kPa | 1023.6
393.15 K, 50000 kPa | 1025.7
393.15 K, 55000 kPa | 1027.7
393.15 K, 60000 kPa | 1029.6
